Patent EP0498899A1, “Use of N-(mercaptoacyl)-amino acids as dopaminergic und gonadoptropic medicaments” (Weth, Gosbert Dr. med., Dr. rer. nat., priority 1990, dated 1992)

Assays:
Prolaktin = experiment: Radioimmunological determination of prolactin in blood plasma of patients after administration; assay type: in vivo, Patienten; settings: for Prolaktin MW: 25 mg Captopril, mean of 12 patients; for Prolaktinsenkung (Effekt): Fig. 2, result in words
Description: (§1) Die Dopaminbestimmung wurde nach G. Weth, "Das Verhalten der Neurotransmitter....", Dissertation, Würzburg, 1987, S. 123-138, durchgeführt. Die Bestimmung von Prolaktin wurde radioimmunologisch nach den Methoden von P. Hwang, H. Guyda, H. Friesen, Proc. Nat. Sci. (USA) 1971, 68/8, S.1902-06 durchgeführt.
(§2) Für die Untersuchungen wurden 2x12 Patienten (Alter 75±10 Jahre), die unter Durchblutungsstörungen, sowohl peripheren als auch zentralen, litten, herangezogen. […]
Die Bestimmung der Dopamin- und Prolaktinwerte wurde wie folgt vorgenommen. […] Das Blut wurde sofort auf 2 °C abgekühlt und bei 2 °C zentrifugiert. Das überstehende Blutplasma wurde bis zur Dopamin- und Prolaktinbestimmung bei minus 80 °C tiefgefroren.
(§3) In den Tabellen sind die Ergebnisse der vorstehend angeführten pharmakologischen Untersuchungen zusammengestellt. Die Dimensionsangaben betragen für Dopamin pg/ml bzw. ng/l und für Prolaktin ng/ml.

Dopamin = experiment: Determination of dopamine in blood plasma of patients after administration (method of G. Weth); assay type: in vivo, Patienten; settings: for Dopamin MW: 25 mg Captopril, mean of 12 patients, value at time 0: 110
Description: as §1, §2
Die Bestimmung der Dopamin- und Prolaktinwerte wurde wie folgt vorgenommen. In angegebenen Zeitabschnitten von 15, 30, 60 und 120 Minuten wurden dem Patienten je 5 ml Blut entnommen und in speziell präparierte Vakuum-Container, die Glutathion und EDTA enthielten, gegeben. Das Blut wurde sofort auf 2 °C abgekühlt und bei 2 °C zentrifugiert. Das überstehende Blutplasma wurde bis zur Dopamin- und Prolaktinbestimmung bei minus 80 °C tiefgefroren.
as §3

SMILES: C[C@H](CS)C(=O)N1CCC[C@H]1C(=O)O [Captopril]
- Prolaktin MW (Prolaktin; 15 min after dosing, value at time 0: 14,3): 13,6 ng/ml
- Prolaktin MW (Prolaktin; 30 min after dosing, value at time 0: 14,8): 12,3 ng/ml
- Prolaktin MW (Prolaktin; 60 min after dosing, value at time 0: 14,8): 9,0 ng/ml
- Prolaktin MW (Prolaktin; 90 min after dosing, value at time 0: 14,8): 8,4 ng/ml
- Prolaktin MW (Prolaktin; 120 min after dosing, value at time 0: 14,8): 7,9 ng/ml
- Prolaktinsenkung (Effekt) (Prolaktin; 15 min after 25 mg Captopril oral per patient (mean weight 60 kg)): signifikanter
- Prolaktinsenkung (Effekt) (Prolaktin; 60 min after 25 mg Captopril oral per patient (mean weight 60 kg)): hochsignifikanter
- Höhepunkt des Anstiegs von Dopamin (time) (Dopamin; 25 mg Captopril oral per patient (mean weight 60 kg), Fig. 1): ~60 min
- Dopamin MW (Dopamin; 15 min after dosing): 163 pg/mL
- Dopamin MW (Dopamin; 30 min after dosing): 210 pg/mL
- Dopamin MW (Dopamin; 60 min after dosing): 291 pg/mL
- Dopamin MW (Dopamin; 90 min after dosing): 250 pg/mL
- Dopamin MW (Dopamin; 120 min after dosing): 211 pg/mL
- Maximum der Dopaminfreisetzung (time) (Dopamin; 12,5 mg Captopril, Fig. 3): 60 min
- Anstieg von Dopamin (Dopamin; 15 min after 25 mg Captopril oral per patient (mean weight 60 kg), Fig. 1, result in words): signifikanten Anstieg
- Anstieg von Dopamin (Dopamin; 30 min after 25 mg Captopril, result in words): hochsignifikanten Anstieg
- Anstieg (Dopaminfreisetzung) (Dopamin; 30 min after 12,5 mg Captopril, Fig. 3, result in words): signifikant
